The target in the assay is A-kinase anchor protein 7 isoform gamma (Human, UniProt Q9P0M2). Briefly: Binding Assay. As to the method:
Stable and optimal assay conditions were determined by cross-titrating GST-AKAP18δ and biotinylated PLB using 10 μg/ml glutathione acceptor beads and 10 μg/ml streptavidin donor beads in an AlphaScreen assay. The excitation wavelength was 680 nm, with the emission wavelength being 520-560 nm. Signal intensity in each well was registered and the optimal concentration to use was chosen to be the concentration prior to the peak of the signal.

SMILES strings stand for the structures.

Chain of A-kinase anchor protein 7 isoform gamma (Q9P0M2 whole entry, canonical isoform): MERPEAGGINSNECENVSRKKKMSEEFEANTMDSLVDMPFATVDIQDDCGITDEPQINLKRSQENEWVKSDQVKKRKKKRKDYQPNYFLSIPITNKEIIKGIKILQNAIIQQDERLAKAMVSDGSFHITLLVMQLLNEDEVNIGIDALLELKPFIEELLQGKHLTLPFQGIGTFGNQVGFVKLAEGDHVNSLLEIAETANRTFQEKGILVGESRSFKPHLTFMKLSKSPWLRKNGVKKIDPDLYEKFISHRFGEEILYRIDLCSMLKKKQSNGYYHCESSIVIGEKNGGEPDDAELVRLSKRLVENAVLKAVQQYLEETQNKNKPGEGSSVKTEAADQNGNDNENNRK

As a reminder, the EC50 is the concentration at which the effect is half-maximal. Take `Cc1ccc(NC(=O)Nc2ccc(CN(Cc3ccc(NC(=O)Nc4ccc(C)cc4)cc3)Cc3ccc(NC(=O)Nc4ccc(C)cc4)cc3)cc2)cc1` [US9556111, Table 1.20]: a half-maximal effect (EC50) was put at 5.2 µM.

These data come from BindingDB's records for patent US9556111 (UNIVERSITETET I OSLO, 2017).
